Measured values reported in ChEMBL document CHEMBL3885861, “Open TG-GATES”.

Species: Rattus norvegicus
Test: Open TG-GATES - Regimen: Single
Type: toxicity, organism-based, Sprague-Dawley
Parameters: regimen Single, gender Male, age 6 weeks
Conditions: in vivo, po, 0 mg/kg, route gavage, dose level Control; for APTT / Bas / Eos / Fbg / Hb / Ht / Lym / MCH / MCHC / MCV / Mono / Neu / PT / Plat / RBC / Ret / WBC: tissue Blood; for KIDNEY_L / KIDNEY_R / KIDNEY_TOTAL: tissue Kidney; for LIVER: tissue Liver; for A/G / ALP / ALT / AST / BUN / CRE / Ca / Cl / DBIL / GLC / IP / K / LDH / Na / PL / RALB / TBIL / TC / TG / TP / gamma-GTP: tissue Plasma

Compound: Nc1c2c(nc3ccccc13)CCCC2 [TACRINE]
- TERMINAL_BW (3 h): 206.5 g
- APTT (3 h): 19.7 s
- Bas (3 h): 0%
- Eos (3 h): 0.8%
- Fbg (3 h): 293.2 mg/dL
- Hb (3 h): 13 g/dL
- Ht (3 h): 37.9%
- Lym (3 h): 81.6%
- MCH (3 h): 21.2 pg
- MCHC (3 h): 34.2%
- MCV (3 h): 61.7 fL
- Mono (3 h): 2%
- Neu (3 h): 15%
- PT (3 h): 16.3 s
- Plat (3 h): 114.9 x10_4/uL
- RBC (3 h): 614.4 x10_4/ul
- Ret (3 h): 7.9%
- WBC (3 h): 97 x10_2/uL
- KIDNEY_L (3 h): 0.9 g
- KIDNEY_R (3 h): 0.9 g
- KIDNEY_TOTAL (3 h): 1.8 g
- LIVER (3 h): 9.3 g
- A/G (3 h): 1.2
- ALP (3 h): 1417 IU/L
- ALT (3 h): 39.6 IU/L
- AST (3 h): 77.8 IU/L
- BUN (3 h): 13 mg/dL
- CRE (3 h): 0.2 mg/dL
- Ca (3 h): 10.6 mg/dL
- Cl (3 h): 106.8 meq/L
- DBIL (3 h): 0.002 mg/dL
- GLC (3 h): 189.6 mg/dL
- IP (3 h): 7.9 mg/dL
- K (3 h): 3.9 meq/L
- LDH (3 h): 229 IU/L
- Na (3 h): 142.6 meq/L
- PL (3 h): 131.4 mg/dL
- RALB (3 h): 3 g/dL
- TBIL (3 h): 0.018 mg/dL
- TC (3 h): 73.2 mg/dL
- TG (3 h): 60 mg/dL
- TP (3 h): 5.4 g/dL
- gamma-GTP (3 h): 1.2 IU/L
- TERMINAL_BW (6 h): 208.7 g
- APTT (6 h): 21.4 s
- Bas (6 h): 0%
- Eos (6 h): 0.8%
- Fbg (6 h): 310.4 mg/dL
- Hb (6 h): 13.3 g/dL
- Ht (6 h): 38.6%
- Lym (6 h): 80.2%
- MCH (6 h): 21.1 pg
- MCHC (6 h): 34.5%
- MCV (6 h): 61.1 fL
- Mono (6 h): 2.6%
- Neu (6 h): 16%
- PT (6 h): 16.1 s
- Plat (6 h): 115.4 x10_4/uL
- RBC (6 h): 632.2 x10_4/ul
- Ret (6 h): 7.7%
- WBC (6 h): 96.6 x10_2/uL
- KIDNEY_L (6 h): 0.9 g
- KIDNEY_R (6 h): 0.9 g
- KIDNEY_TOTAL (6 h): 1.9 g
- LIVER (6 h): 9 g
- A/G (6 h): 1.2
- ALP (6 h): 1333 IU/L
- ALT (6 h): 38.4 IU/L
- AST (6 h): 74.6 IU/L
- BUN (6 h): 10.8 mg/dL
- CRE (6 h): 0.2 mg/dL
- Ca (6 h): 10.6 mg/dL
- Cl (6 h): 106.8 meq/L
- DBIL (6 h): 0 mg/dL
- GLC (6 h): 176.6 mg/dL
- IP (6 h): 9.2 mg/dL
- K (6 h): 4.6 meq/L
- LDH (6 h): 252.4 IU/L
- Na (6 h): 142 meq/L
- PL (6 h): 137.4 mg/dL
- RALB (6 h): 2.9 g/dL
- TBIL (6 h): 0.016 mg/dL
- TC (6 h): 79.4 mg/dL
- TG (6 h): 82 mg/dL
- TP (6 h): 5.4 g/dL
- gamma-GTP (6 h): 1.2 IU/L
- TERMINAL_BW (9 h): 205.8 g
- APTT (9 h): 19.8 s
- Bas (9 h): 0%
- Eos (9 h): 1%
- Fbg (9 h): 285.8 mg/dL
- Hb (9 h): 13.2 g/dL
- Ht (9 h): 38.4%
- Lym (9 h): 81.6%
- MCH (9 h): 21.1 pg
- MCHC (9 h): 34.2%
- MCV (9 h): 61.5 fL
- Mono (9 h): 2%
- Neu (9 h): 15%
- PT (9 h): 16 s
- Plat (9 h): 120 x10_4/uL
- RBC (9 h): 624.8 x10_4/ul
- Ret (9 h): 8.6%
- WBC (9 h): 84.5 x10_2/uL
- KIDNEY_L (9 h): 0.9 g
- KIDNEY_R (9 h): 0.9 g
- KIDNEY_TOTAL (9 h): 1.8 g
- LIVER (9 h): 8.8 g
- A/G (9 h): 1.3
- ALP (9 h): 1213.6 IU/L
- ALT (9 h): 34 IU/L
- AST (9 h): 72.6 IU/L
- BUN (9 h): 12.6 mg/dL
- CRE (9 h): 0.2 mg/dL
- Ca (9 h): 10.4 mg/dL
- Cl (9 h): 107 meq/L
- DBIL (9 h): 0 mg/dL
- GLC (9 h): 185.6 mg/dL
- IP (9 h): 9.9 mg/dL
- K (9 h): 4.2 meq/L
- LDH (9 h): 230.8 IU/L
- Na (9 h): 142 meq/L
- PL (9 h): 139 mg/dL
- RALB (9 h): 3 g/dL
- TBIL (9 h): 0.022 mg/dL
- TC (9 h): 75.8 mg/dL
- TG (9 h): 60.8 mg/dL
- TP (9 h): 5.4 g/dL
- gamma-GTP (9 h): 1 IU/L
- TERMINAL_BW (24 h): 214.7 g
- APTT (24 h): 20.5 s
- Bas (24 h): 0%
- Eos (24 h): 0.8%
- Fbg (24 h): 295.8 mg/dL
- Hb (24 h): 13.4 g/dL
- Ht (24 h): 38.7%
- Lym (24 h): 83%
- MCH (24 h): 21.5 pg
- MCHC (24 h): 34.8%
- MCV (24 h): 61.9 fL
- Mono (24 h): 3%
- Neu (24 h): 12.4%
- PT (24 h): 16.3 s
- Plat (24 h): 126.5 x10_4/uL
- RBC (24 h): 626.2 x10_4/ul
- Ret (24 h): 7.3%
- WBC (24 h): 106.1 x10_2/uL
- KIDNEY_L (24 h): 0.9 g
- KIDNEY_R (24 h): 1 g
- KIDNEY_TOTAL (24 h): 1.9 g
- LIVER (24 h): 10 g
- A/G (24 h): 1.3
- ALP (24 h): 1572.4 IU/L
- ALT (24 h): 43 IU/L
- AST (24 h): 74.4 IU/L
- BUN (24 h): 18.8 mg/dL
- CRE (24 h): 0.2 mg/dL
- Ca (24 h): 10.8 mg/dL
- Cl (24 h): 106.8 meq/L
- DBIL (24 h): 0.008 mg/dL
- GLC (24 h): 191.6 mg/dL
- IP (24 h): 7.3 mg/dL
- K (24 h): 4.6 meq/L
- LDH (24 h): 300.2 IU/L
- Na (24 h): 141.4 meq/L
- PL (24 h): 154.2 mg/dL
- RALB (24 h): 3.1 g/dL
- TBIL (24 h): 0.032 mg/dL
- TC (24 h): 79.8 mg/dL
- TG (24 h): 103 mg/dL
- TP (24 h): 5.4 g/dL
- gamma-GTP (24 h): 1 IU/L
